Like-named read-outs stand apart in the source and are kept apart here.
What was measured:
[1] = tested on: Staphylococcus epidermidis ATCC 12228; test: Carrier test: H2O2 solutions treated with 400 to 420 nm light for 1 minute, applied to bacterial carriers after a dwell time; type: cell-based
Procedure: The solutions were applied to the targets after the dwell times of 1 minute, 5 minutes, 10 minutes, 30 minutes, 1 hour, 12 hours, 24 hours, 2, days, 5 days, and 7 days. After 7 days of dwell time, all solutions were treated with light again for 1 minute, and a target was treated after 1 minute of dwell time.

[2] = tested on: Desulfoviberio vulgaris Hildenborough (DvH); conditions: combined with radiation of 300 nm to 500 nm; in the presence of DvH, not replicated in sterile environment
Procedure: In Example 1, carbon steel coupons were incubated in the presence of oxygen and, as the oxidizing agent compound, hydrogen peroxide, combined with radiation of certain wavelengths of 300 nm to 500 nm in a synergistic reaction, with and without an inoculum of DvH. The metal loss of the carbon steel coupons was measured.

DvH = tested on: DvH
Procedure: In example 2, steel coupons were incubated in cultures of DvH for three days with and without exposure to an oxidizing agent compound, specifically hydrogen peroxide, combined with radiation of certain wavelengths 300-500 nm in a synergistic reaction and then the coupons were measured to determine the amount of metal loss due to corrosion.

[3] = 7 days*: reactivation with light of 400 to 420 nm for 1 minute, 1 minute dwell, control 9.80E+04
[4] = 7 days*: reactivation with light of 400 to 420 nm for 1 minute, applied after 1 minute dwell time
[5] = applied 1 min after solution exposed to light (400 to 420 nm, 1 minute)
[6] = applied 1 min after solution exposed to light, control 6.04E+05 CFU per carrier
[7] = applied 5 min after solution exposed to light
[8] = applied 5 min after solution exposed to light, control 6.04E+05
[9] = applied 10 min after solution exposed to light
[10] = applied 10 min after solution exposed to light, control 6.04E+05
[11] = applied 30 min after solution exposed to light
[12] = applied 30 min after solution exposed to light, control 6.04E+05
[13] = applied 1 hr after solution exposed to light
[14] = applied 1 hr after solution exposed to light, control 6.04E+05
[15] = applied 12 hr after solution exposed to light
[16] = applied 12 hr after solution exposed to light, control 9.20E+04
[17] = applied 24 hr after solution exposed to light
[18] = applied 24 hr after solution exposed to light, control 1.33E+05
[19] = applied 2 days after solution exposed to light
[20] = applied 2 days after solution exposed to light, control 3.00E+05
[21] = applied 5 days after solution exposed to light
[22] = applied 5 days after solution exposed to light, control 4.50E+04
[23] = applied 7 days after solution exposed to light
[24] = applied 7 days after solution exposed to light, control 9.80E+04

| SMILES | % Reduction vs. Control [1, 3] | CFU per carrier [1, 4] [CFU per carrier] | CFU per carrier [1, 5] [CFU per carrier] | % Reduction vs. Control [1, 6] [%] | CFU per carrier [1, 7] [CFU per carrier] | % Reduction vs. Control [1, 8] [%] | CFU per carrier [1, 9] [CFU per carrier] | % Reduction vs. Control [1, 10] [%] | CFU per carrier [1, 11] [CFU per carrier] | % Reduction vs. Control [1, 12] [%] | CFU per carrier [1, 13] [CFU per carrier] | % Reduction vs. Control [1, 14] [%] | CFU per carrier [1, 15] [CFU per carrier] | % Reduction vs. Control [1, 16] | CFU per carrier [1, 17] [CFU per carrier] | % Reduction vs. Control [1, 18] [%] | CFU per carrier [1, 19] [CFU per carrier] | % Reduction vs. Control [1, 20] [%] | CFU per carrier [1, 21] [CFU per carrier] | % Reduction vs. Control [1, 22] [%] | further results |
| --- | --- | --- | --- | --- | --- | --- | --- | --- | --- | --- | --- | --- | --- | --- | --- | --- | --- | --- | --- | --- | --- |
| OO [3% H2O2, hydrogen peroxide] | 89.80% | 1.00E+04 | 7.00E+04 | 88.42 | 7.00E+04 | 88.42 | 3.10E+04 | 94.87 | 2.80E+04 | 95.37 | 7.10E+04 | 88.25 | 1.80E+04 | 80.43% | 2.10E+04 | 84.21 | 9.00E+04 | 70.00 | 3.29E+03 | 92.69 | microbes eliminated (microbes; 3% hydrogen peroxide together with radiation of 300 to 600 nanometers): 99.9999%; microbes eliminated (microbes; 3% solution alone, no radiation): approximately 30%; CFU per carrier [1, 23]: 1.50E+04 CFU per carrier; % Reduction vs. Control [1, 24]: 84.69% |
| OO [hydrogen peroxide] | – | – | – | – | – | – | – | – | – | – | – | – | – | – | – | – | – | – | – | – | effect on corrosion (weight loss) of carbon steel coupons [2]: reduce and/or eliminate corrosion in the presence of DvH; metal loss of coupons without treatment relative to coupons with treatment (DvH; 100 ppm (0.01%) hydrogen peroxide combined with radiation 300-500 nm, three days in DvH cultures): ~2 fold; corrosion of metal coupons (DvH; in the presence of hydrogen peroxide combined with radiation 300-500 nm, DvH cultures, three days): little to no corrosion |
| OO [0.3% H2O2, hydrogen peroxide] | nr | 1.03E+05 | 1.10E+04 | 98.18 | 3.00E+04 | 95.04 | 1.98E+05 | 67.24 | 7.00E+04 | 88.42 | 7.00E+04 | 88.42 | 1.27E+05 | nr | 1.40E+04 | 89.47 | 2.64E+05 | 12.00 | 4.40E+04 | 2.22 | CFU per carrier [1, 23]: 7.70E+04 CFU per carrier; % Reduction vs. Control [1, 24]: 21.43% |

— US11033648B2, “Method, system and device for reducing microbial concentration and/or biofilm formation and/or reducing mineral and chemical concentrations to purify contaminated surfaces and substances” (EMODs Technology, L.L.C., priority 2019, dated 2021)
